Converted amounts (≈) assume the structure as drawn. “And” between values parts separate entries of the source, which are not always exact repeats. Identical values can stand only once. Where a SMILES comes first, the peptide text is derived from it. Where no end group is shown, it is not given here. The star is where a group is joined. Octanoyl = CCCCCCCC(=O)*
How the values were obtained:
[1] = test system: circulating GH; test: Circulating GH in 10-day old rats after subcutaneous injection; format: in vivo; settings: 300 mg/kg, circulating GH at 15 minutes
Protocol: The peptide was injected subcutaneously in 10-day old rats at a dose of 300 mg/kg along with a solvent control and Ghrelin, and the circulating GH determined at 15 minutes, as described in R. Deghenghi et al., Life Sciences 54, 1321-1328 (1994). The results were as follows: The peptide was administered to rats as described above in Example 1. […]

[2] = Solubility in water; format: physicochemical; settings: for solubility: water
Protocol: Solubility in water: 0.7 mg/ml

Solubility in water [2]	Compound	GH [1]	solubility [2] [µg/mL]
	Ghrelin (human): peptide of 27 or 28 amino acids with an octanoyl ester on a serine residue; potent releaser of growth hormone (GSS(Octanoyl)FLSPEHQRVQQRKESKKPPAKLQPR; also: octanoyl ester on a serine residue; UniProt Q9UBU3 24-51, looked up)	139.80 ± 15.37 ng/mL and 140 ± 15 ng/mL and 139.8 ± 15.4 ng/mL	
insoluble	CCCCCCCC(=O)OC[C@H](NC(=O)[C@H](CO)NC(=O)CN)C(=O)N[C@@H](Cc1ccccc1)C(=O)O [Peptide of Example 3, Gly-Ser-Ser(Octanoyl)-Phe] (H-GSS(Octanoyl)F-OH; N-terminus and C-terminus assumed)		
	CCCCCCCC(=O)OC[C@H](NC(=O)[C@H](CO)NC(=O)CN)C(=O)N[C@@H](Cc1ccccc1)C(=O)N[C@@H](CC(C)C)C(=O)N[C@@H](CO)C(=O)N1CCC[C@H]1C(=O)N[C@@H](CCC(=O)O)C(=O)N[C@@H](C)C(=O)N[C@@H](CCCCN)C(=O)N[C@@H](CC(C)C)C(=O)N[C@@H](CCC(N)=O)C(=O)N1CCC[C@H]1C(=O)N[C@@H](CCCNC(=N)N)C(=O)O [Peptide of Example 2, Gly-Ser-Ser(Octanoyl)-Phe-Leu-Ser-Pro-Glu-Ala-Lys-Leu-Gln-Pro-Arg] (H-GSS(Octanoyl)FLSPEAKLQPR-OH)	7.00 ± 3.5 ng/mL	900 (≈ 548 µM)
	CCCCCCCC(=O)OC[C@H](NC(=O)[C@H](CO)NC(=O)CN)C(=O)N[C@@H](Cc1ccccc1)C(=O)N[C@@H](CC(C)C)C(=O)N[C@@H](CO)C(=O)N1CCC[C@H]1C(=O)N[C@@H](CCC(=O)O)C(=O)O [Peptide of Example 1, Gly-Ser-Ser(Octanoyl)-Phe-Leu-Ser-Pro-Glu]		700 (≈ 738 µM)

From patent US20020187938A1, “Ghrelin antagonists” (priority 2000, published 2002)
